Results published in US9765105B2, “Macrolide compound” (Pulike Biological Engineering, Inc., priority 2013, dated 2017).

Experiments:
Test in all cases: in vitro susceptibility, MIC by mini broth dilution
Assay type in all cases: cell-based
[1] = tested on: Staphylococcus aureus CVCC26003; details: strain CVCC26003
Procedure, shortened: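 S. aureus CVCC26003 was revived and subcultured twice, 20 h each at 35° C, on solid medium, then diluted 1:200 in CAMHB liquid medium. Compounds received an 11-step two-fold DMSO dilution in parallel duplicate rows. MIC was read by mini broth dilution per NCCLS guidance.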

[2] = tested on: Actinobacillus pleuropneumoniae CVCC262; details: strain CVCC262
Procedure, shortened: (§1)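 Broth microdilution MIC, NCCLS method: 11-point two-fold DMSO compound series, duplicate rows, well 12 as control. Inoculum from 20 h, 35° C plate cultures, diluted 1:200 in broth.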

[3] = tested on: Haemophilus parasuis
Procedure, shortened: as §1

[4] = tested on: Pasteurella multocida CVCC399; details: strain CVCC399
Procedure, shortened: as §1

[5] = tested on: Streptococcus equines CVCC556; details: strain CVCC556
Procedure, shortened: as §1

Row | Structure (SMILES) | MIC values, Staphylococcus aureus CVCC26003 [1] [ug/mi] | MIC values, Actinobacillus pleuropneumoniae CVCC262 [2] | MIC values, Haemophilus parasuis [3] [ug/mi] | MIC values, Pasteurella multocida CVCC399 [4] [ug/mi] | MIC values, Streptococcus equines CVCC556 [5] [ug/mi]
1 | CC[C@H]1OC(=O)[C@H](C)[C@@H](O[C@H]2C[C@@](C)(OC)[C@](O)(CNc3ccc4ncccc4c3)[C@H](C)O2)[C@H](C)[C@@H](O[C@@H]2O[C@H](C)C[C@H](N(C)C)[C@H]2O)[C@](C)(O)C[C@@H](C)NC[C@H](C)[C@@H](O)[C@]1(C)O [syzx-99, (2R,3S,4R,5S,8R,10R,11R,12S,13S,14R)-13-[(2,6-dideoxy-3-C-methyl-3-O-methyl-4-C-[(quinolin-6-yl-amino)-methyl]-α-L-ribopyranosyl)oxy]-2-ethyl-3,4,10-trihydroxy-3,5,8,10,12,14-hexamethyl-11-[[3,4,6-trideoxy-3-(dimethylamino)-β-D-xylo-hexopyranosy]oxy]-1-oxo-7-azacyclopentadecan-15-one] | 4 | 128 ug/mi | 4 | 8 | 2
2 | CC[C@H]1OC(=O)[C@H](C)[C@@H](O[C@H]2C[C@@](C)(OC)[C@](O)(CNC(C)C(C)(C)C)[C@H](C)O2)[C@H](C)[C@@H](O[C@@H]2O[C@H](C)C[C@H](N(C)C)[C@H]2O)[C@](C)(O)C[C@@H](C)NC[C@H](C)[C@@H](O)[C@]1(C)O (stereo partly drawn) [syzx-100, (2R,3S,4R,5S,8R,10R,11R,12S,13S,14R)-13-[(2,6-dideoxy-3-C-methyl-3-O-methyl-4-C-[(1,2,2-trimethyl-propylamino)-methyl]-α-L-ribopyranosyl)oxy]-2-ethyl-3,4,10-trihydroxy-3,5,8,10,12,14-hexamethyl-11-[[3,4,6-trideoxy-3-(dimethylamino)-β-D-xylo-hexopyranosy]oxy]-1-oxa-7-azacyclopentadecan-15-one] | 1 | 1 ug/mi | 2 | 0.5 | 2
3 | CCCCNC[C@]1(O)[C@H](C)O[C@@H](O[C@H]2[C@H](C)[C@@H](O[C@@H]3O[C@H](C)C[C@H](N(C)C)[C@H]3O)[C@](C)(O)C[C@@H](C)N(CCC)C[C@H](C)[C@@H](O)[C@](C)(O)[C@@H](CC)OC(=O)[C@@H]2C)C[C@@]1(C)OC [syzx-102] | 0.25 | 0.25 ug/mi | 0.25 | 0.5 | 0.25
4 | CCCN1C[C@H](C)[C@@H](O)[C@](C)(O)[C@@H](CC)OC(=O)[C@H](C)[C@@H](O[C@H]2C[C@@](C)(OC)[C@](O)(CN(CC)CC)[C@H](C)O2)[C@H](C)[C@@H](O[C@@H]2O[C@H](C)C[C@H](N(C)C)[C@H]2O)[C@](C)(O)C[C@H]1C [syzx-103] | 0.25 | 0,25 ug/mi | 0.25 | 1 | 0.25
5 | CCCN1C[C@H](C)[C@@H](O)[C@](C)(O)[C@@H](CC)OC(=O)[C@H](C)[C@@H](O[C@H]2C[C@@](C)(OC)[C@](O)(CNc3ccccc3)[C@H](C)O2)[C@H](C)[C@@H](O[C@@H]2O[C@H](C)C[C@H](N(C)C)[C@H]2O)[C@](C)(O)C[C@H]1C [syzx-104] | 0.25 | 0.25 ug/mi | 0.25 | 1 | 0.25
6 | CCCN1C[C@H](C)[C@@H](O)[C@](C)(O)[C@@H](CC)OC(=O)[C@H](C)[C@@H](O[C@H]2C[C@@](C)(OC)[C@](O)(CNCC3(C)CC(N)CC(C)(C)C3)[C@H](C)O2)[C@H](C)[C@@H](O[C@@H]2O[C@H](C)C[C@H](N(C)C)[C@H]2O)[C@](C)(O)C[C@H]1C (some centres unmarked) [syzx-106] | 2 | 0.5 ug/mi | 0.5 | 2 | 0.25
7 | CCCN1C[C@H](C)[C@@H](O)[C@](C)(O)[C@@H](CC)OC(=O)[C@H](C)[C@@H](O[C@H]2C[C@@](C)(OC)[C@](O)(CNCc3ccc(F)cc3)[C@H](C)O2)[C@H](C)[C@@H](O[C@@H]2O[C@H](C)C[C@H](N(C)C)[C@H]2O)[C@](C)(O)C[C@H]1C [syzx-108] | 0.25 | 0.25 ug/mi | 0.25 | 1 | 0.25
8 | CCCN1CC(C)C(O)C(C)(O)C(CC)OC(=O)C(C)C(OC2CC(C)(OC)C(O)(Cn3ccnn3)C(C)O2)C(C)C(OC2OC(C)CC(N(C)C)C2O)C(C)(O)CC1C (centres unmarked) [syzx-109] | 0.25 | 0.25 ug/mi | 0.25 | 1 | 0.25
9 | CCCN1C[C@H](C)[C@@H](O)[C@](C)(O)[C@@H](CC)OC(=O)[C@H](C)[C@@H](O[C@H]2C[C@@](C)(OC)[C@](O)(CNCC)[C@H](C)O2)[C@H](C)[C@@H](O[C@@H]2O[C@H](C)C[C@H](N(C)C)[C@H]2O)[C@](C)(O)C[C@H]1C [syzx-110] | 0.25 | 0.25 ug/mi | 0.25 | 0.5 | 0.25
10 | CCCN1C[C@H](C)[C@@H](O)[C@](C)(O)[C@@H](CC)OC(=O)[C@H](C)[C@@H](O[C@H]2C[C@@](C)(OC)[C@](O)(CNC(C)C)[C@H](C)O2)[C@H](C)[C@@H](O[C@@H]2O[C@H](C)C[C@H](N(C)C)[C@H]2O)[C@](C)(O)C[C@H]1C [syzx-111] | 0.25 | 0.25 ug/mi | 0.25 | 0.5 | 0.25
11 | CCCN1C[C@H](C)[C@@H](O)[C@](C)(O)[C@@H](CC)OC(=O)[C@H](C)[C@@H](O[C@H]2C[C@@](C)(OC)[C@](O)(CNCC(C)C)[C@H](C)O2)[C@H](C)[C@@H](O[C@@H]2O[C@H](C)C[C@H](N(C)C)[C@H]2O)[C@](C)(O)C[C@H]1C [syzx-112] | 0.25 | 0.25 ug/mi | 0.25 | 0.5 | 0.25
12 | CCCN1C[C@H](C)[C@@H](O)[C@](C)(O)[C@@H](CC)OC(=O)[C@H](C)[C@@H](O[C@H]2C[C@@](C)(OC)[C@](O)(CNc3cccc(Cl)c3)[C@H](C)O2)[C@H](C)[C@@H](O[C@@H]2O[C@H](C)C[C@H](N(C)C)[C@H]2O)[C@](C)(O)C[C@H]1C [syzx-113] | 0.25 | 0.25 ug/mi | 0.25 | 1 | 0.25
13 | CCCCCCNC[C@]1(O)[C@H](C)O[C@@H](O[C@H]2[C@H](C)[C@@H](O[C@@H]3O[C@H](C)C[C@H](N(C)C)[C@H]3O)[C@](C)(O)C[C@@H](C)N(CCC)C[C@H](C)[C@@H](O)[C@](C)(O)[C@@H](CC)OC(=O)[C@@H]2C)C[C@@]1(C)OC [syzx-115] | 0.25 | 0.25 ug/mi | 0.25 | 0.5 | 0.25
14 | CCCN1C[C@H](C)[C@@H](O)[C@](C)(O)[C@@H](CC)OC(=O)[C@H](C)[C@@H](O[C@H]2C[C@@](C)(OC)[C@](O)(CNCc3ccc(C(F)(F)F)cc3)[C@H](C)O2)[C@H](C)[C@@H](O[C@@H]2O[C@H](C)C[C@H](N(C)C)[C@H]2O)[C@](C)(O)C[C@H]1C [syzx-116] | 0.25 | 0.25 ug/mi | 0.25 | 1 | 0.25
15 | CCCN1C[C@H](C)[C@@H](O)[C@](C)(O)[C@@H](CC)OC(=O)[C@H](C)[C@@H](O[C@H]2C[C@@](C)(OC)[C@](O)(CNCC3CC3)[C@H](C)O2)[C@H](C)[C@@H](O[C@@H]2O[C@H](C)C[C@H](N(C)C)[C@H]2O)[C@](C)(O)C[C@H]1C [syzx-117] | 0.25 | 0.25 ug/mi | 0.25 | 0.5 | 0.25
16 | CCCN1C[C@H](C)[C@@H](O)[C@](C)(O)[C@@H](CC)OC(=O)[C@H](C)[C@@H](O[C@H]2C[C@@](C)(OC)[C@](O)(CNCc3ccc(OC)cc3)[C@H](C)O2)[C@H](C)[C@@H](O[C@@H]2O[C@H](C)C[C@H](N(C)C)[C@H]2O)[C@](C)(O)C[C@H]1C [syzx-118] | 0.25 | 0.25 ug/mi | 0.25 | 0.25 | 0.25
